Where two headings read alike, the source gives them in different places.
Assays:
[1] = tested on: HIV-1 isolate 4xAZT/Y181C; test: Cytopathic cell killing assay, MT-4 cells, isolate 4xAZT/Y181C; format: cell-based; conditions: Human immunodeficiency virus 1, MT4, read-out: EC50, isolate 4XAZT/Y181C
Description: (§1) The various HIV isolates tested in the Figures are those corresponding to wild-type virus (NL4-3) and the other strains listed by their RT mutations. The three 4×AZT isolates included in the Figures represent AZT drug-resistant variants. For example, the 4×AZT/L100I isolate has five mutations: four mutations confer increased resistance to AZT, and the other mutation is located within the NNRTI binding pocket. TZB and nevir. (nevirapine) are two well-known NNRTIs, included in this experiment for comparison purposes.
(§2) In this Example, the antiviral and cellular toxicity of NNRTIs was investigated, using the cytopathic cell killing assay described by Yang (Yang et al., “Characteristics of a Group of Non-nucleoside Reverse Transcriptase Inhibitors with Structural Diversity and Potent Anti-Human Immunodeficiency Virus Activity,” Leukemia 9:S75-S85 [1995]). Briefly, in this method cells (e.g., the CEM-SS cell line, available from the NIAID AIDS Research and Reference Program [ARRRP]) were seeded at a density of 5×10^3 cells/well, into the wells of a 96-well microtiter plate. The cells were then infected with HIV virus (either mutant or WT), at a multiplicity of infection (MOI) previously determined to provide complete cell killing by 6 days of culture post-infection (e.g., MOI of 0.01-0.05). Each of the HIV isolates was pre-titered to induce equivalent levels of infection based on cell killing or virus production, prior to their use in these assays. A range of test compound concentrations was added to the wells in triplicate (e.g., serial half-log dilutions) to evaluate inhibition of HIV infection. Controls for each assay included drug controls (drug colorimetric control wells), drug cytotoxicity control wells (cells with drug), virus control wells (cells with virus), and cell viability controls (cells only). Positive control drugs (e.g. AZT and ddC) were also run in parallel.
(§3) After six days of incubation at 37° C., cell viability was determined spectrophotometrically at 450 nm for each well, using the metabolic reduction of XTT to a soluble colored formazan. (See, Gartner and Popovic, “Virus Isolation and Production, in Aldovini and Walker (eds.), Techniques in HIV Research, Stockton Press, NY, pp. […] [1991]; and Nara and Fischinger, “Quantitative Infectivity Assay for HIV-1 and HIV-2, ” Nature 332:469-470 [1988]).
(§4) The in vitro therapeutic index (TI50) was defined as the fold-difference between the EC50 and IC50. The results for the various compounds are included in FIGS. 8 and 19.

HIV-1 isolate A98G = test: Cytopathic cell killing assay, MT-4 cells, isolate A98G; format: cell-based
Description: as §1, §2, §3, §4

HIV-1 isolate Y188C = test: Cytopathic cell killing assay, MT-4 cells, isolate Y188C; format: cell-based
Description: as §1, §2, §3, §4

[2] = tested on: WT and HIV-1 variants containing amino acid substitutions in RT; format: cell-based; conditions: cytopathic cell killing assay, NNRTI-resistant HIV isolates
HIV-1 isolate L100I = test: Cytopathic cell killing assay, MT-4 cells, isolate L100I; format: cell-based
In short: (§5)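 Antiviral activity was derived from XTT-based viability after six days at 37° C in HIV-1-infected cells. Equivalent infection across isolates was ensured by pre-titering for cell killing or virus production. TI50 was defined as the fold-difference between EC50 and IC50.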

HIV-1 NL4-3 (WT) = test: Cytopathic cell killing assay, MT-4 cells, isolate NL4-3 (WT); format: cell-based
Description: as §1, §2, §3, §4

HIV-1 isolate Y181C = test: Cytopathic cell killing assay, MT-4 cells, isolate Y181C; format: cell-based
In short: as §5

HIV-1 isolate L74V = test: Cytopathic cell killing assay, MT-4 cells, isolate L74V; format: cell-based
Description: as §1, §2, §3, §4

[3] = tested on: HIV-1 isolate 4xAZT/L100I; test: Cytopathic cell killing assay, MT-4 cells, isolate 4xAZT/L100I; format: cell-based; conditions: Human immunodeficiency virus 1, MT4, read-out: EC50, isolate 4XAZT/L1001
Description: The various HIV isolates tested in the Figures are those corresponding to wild-type virus (NL4-3) and the other strains listed by their RT mutations. The three 4×AZT isolates included in the Figures represent AZT drug-resistant variants.
Briefly, in this method cells (e.g., the CEM-SS cell line, available from the NIAID AIDS Research and Reference Program [ARRRP]) were seeded at a density of 5×10^3 cells/well, into the wells of a 96-well microtiter plate. The cells were then infected with HIV virus (either mutant or WT), at a multiplicity of infection (MOI) previously determined to provide complete cell killing by 6 days of culture post-infection (e.g., MOI of 0.01-0.05). Each of the HIV isolates was pre-titered to induce equivalent levels of infection based on cell killing or virus production, prior to their use in these assays. A range of test compound concentrations was added to the wells in triplicate (e.g., serial half-log dilutions) to evaluate inhibition of HIV infection. Controls for each assay included drug controls (drug colorimetric control wells), drug cytotoxicity control wells (cells with drug), virus control wells (cells with virus), and cell viability controls (cells only). Positive control drugs (e.g. AZT and ddC) were also run in parallel.
as §3
The in vitro therapeutic index (TI50) was defined as the fold-difference between the EC50 and IC50.

HIV-1 isolate K101E = test: Cytopathic cell killing assay, MT-4 cells, isolate K101E; format: cell-based
In short: as §5

[4] = tested on: HIV-1 isolate 4xAZT (AZT drug-resistant variant); test: Cytopathic cell killing assay, MT-4 cells, isolate 4xAZT; format: cell-based; conditions: Human immunodeficiency virus 1, MT4, read-out: EC50, isolate 4XAZT
Description: as §1
In this Example, the antiviral and cellular toxicity of NNRTIs was investigated, using the cytopathic cell killing assay described by Yang (Yang et al., “Characteristics of a Group of Non-nucleoside Reverse Transcriptase Inhibitors with Structural Diversity and Potent Anti-Human Immunodeficiency Virus Activity,” Leukemia 9:S75-S85 [1995]). Briefly, in this method cells (e.g., the CEM-SS cell line, available from the NIAID AIDS Research and Reference Program [ARRRP]) were seeded at a density of 5×10^3 cells/well, into the wells of a 96-well microtiter plate. The cells were then infected with HIV virus (either mutant or WT), at a multiplicity of infection (MOI) previously determined to provide complete cell killing by 6 days of culture post-infection (e.g., MOI of 0.01-0.05). Each of the HIV isolates was pre-titered to induce equivalent levels of infection based on cell killing or virus production, prior to their use in these assays. A range of test compound concentrations was added to the wells in triplicate (e.g., serial half-log dilutions) to evaluate inhibition of HIV infection. […]
After six days of incubation at 37° C., cell viability was determined spectrophotometrically at 450 nm for each well, using the metabolic reduction of XTT to a soluble colored formazan. (See, Gartner and Popovic, “Virus Isolation and Production, in Aldovini and Walker (eds.), Techniques in HIV Research, Stockton Press, NY, pp. […] [1991]; and Nara and Fischinger, “Quantitative Infectivity Assay for HIV-1 and HIV-2, ” Nature 332:469-470 [1988]). […]

[5] = Human immunodeficiency virus 1, MT4, read-out: EC50, isolate Y181C, Table 8, MT-4 cells
[6] = Human immunodeficiency virus 1, MT4, read-out: EC50, isolate K101E, Table 8, MT-4 cells

With Nc1cccc2c1nc(-c1c(F)cccc1F)n2Cc1c(F)cccc1F [Compound 3300, 4-amino-1-(2,6-difluorobenzyl)-2-(2,6-difluorophenyl)benzimidazole] the EC50 [1] was > 10 µM, the EC50 (HIV-1 isolate A98G; Human immunodeficiency virus 1, MT4, read-out: EC50, isolate A98G, Table 8, MT-4 cells) was 1.5 µM and the EC50 (HIV-1 isolate Y188C; Human immunodeficiency virus 1, MT4, read-out: EC50, isolate Y188C, Table 8, MT-4 cells) was 2.7 µM. For the same compound, the EC50 (HIV-1 isolate Y188C; Human immunodeficiency virus 1, MT4, read-out: EC50, isolate Y188C, Table 10, values in μM) was 2 µM, the “cross-resistance profile, result in words” value [2] was “inhibit HIV-1 better than TZB” and the EC50 (HIV-1 isolate L100I; Human immunodeficiency virus 1, MT4, read-out: EC50, isolate L1001, Table 8, MT-4 cells) was 1.3 µM. The EC50 (HIV-1 NL4-3 (WT); Human immunodeficiency virus 1, NL43, MT4, Table 8, MT-4 cells, read-out: EC50, isolate NL4-3) was 0.5 µM, the EC50 (HIV-1 NL4-3 (WT); Human immunodeficiency virus 1, NL43, MT4, Table 10, values in μM, read-out: EC50, isolate NL4-3 (WT)) was 0.68 µM and the EC50 (HIV-1 NL4-3 (WT); Table 10, values in μM, listed as NH2, read-out: EC50, isolate NL4-3 (WT)) was 0.4 µM. The EC50 (HIV-1 isolate Y181C; [5]) was 6 µM, the EC50 (HIV-1 isolate L74V; Human immunodeficiency virus 1, MT4, read-out: EC50, isolate L74V, Table 8, MT-4 cells) was 0.3 µM and the EC50 [3] was 0.3 µM. The melting point was 168 to 170 °C, the EC50 (HIV-1 isolate K101E; [6]) was > 20 µM and the EC50 [4] was 0.2 µM.

In the case of CCc1cccc2c1nc(-c1c(F)cccc1F)n2Cc1c(F)cccc1F [Compound 4011, 1-(2,6-difluorobenzyl)-2-(2,6-difluorophenyl)-4-ethylbenzimidazole], the EC50 [1] is reported as > 20 µM, the EC50 (HIV-1 isolate A98G; Human immunodeficiency virus 1, MT4, read-out: EC50, isolate A98G) is reported as 8 µM and the EC50 (HIV-1 isolate Y188C; Human immunodeficiency virus 1, MT4, read-out: EC50, isolate Y188C) is reported as 5.5 µM. The “cross-resistance profile, result in words” value [2] was “inhibit HIV-1 better than TZB”, the EC50 (HIV-1 isolate L100I; Human immunodeficiency virus 1, MT4, read-out: EC50, isolate L100I) was 2.48 µM and the EC50 (HIV-1 isolate L100I; Human immunodeficiency virus 1, MT4, read-out: EC50, isolate L1001) was 0.6 µM. The EC50 (HIV-1 NL4-3 (WT); Human immunodeficiency virus 1, NL43, MT4, read-out: EC50, isolate NL4-3) was 1.1 µM, the EC50 (HIV-1 NL4-3 (WT); Human immunodeficiency virus 1, NL43, MT4, read-out: EC50, isolate NL4-3 (WT)) was 0.9 µM and the EC50 (HIV-1 isolate Y181C; [5]) was > 10 µM. It also gave an EC50 (HIV-1 isolate Y181C; Human immunodeficiency virus 1, MT4, read-out: EC50, isolate Y181C, Table 10, values in μM) of 7.18 µM, an EC50 (HIV-1 isolate L74V; Human immunodeficiency virus 1, MT4, read-out: EC50, isolate L74V) of 1.5 µM and an EC50 [3] of 0.6 µM. The melting point was 165 to 166 °C, the EC50 (HIV-1 isolate K101E; [6]) was > 20 µM and the EC50 (HIV-1 isolate K101E; Human immunodeficiency virus 1, MT4, read-out: EC50, isolate K101E, Table 10, values in μM) was > 50 µM. It also gave an EC50 [4] of 3 µM.
